Assay results from ChEMBL document CHEMBL1201862, “PubChem BioAssay data set” (2004).
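How tested: cells in 96-well plates exposed to compound for 48 hours at five concentrations. GI50: concentration for 50% inhibition of growth.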 Calls of active or inactive are those of the source. No stated cut-off is given here; in the data, active = GI50 up to about 1.1 µM and inactive = higher.

Experiments:
Assay in all cases: growth of human tumour cells (NCI), 48 h
A549 = tested on: A549
ACHN = tested on: ACHN
DU-145 = tested on: DU-145
EKVX = tested on: EKVX
HL-60 = tested on: HL-60
MDA-MB-435 = tested on: MDA-MB-435
MOLT-4 = tested on: MOLT-4
NCI/ADR-RES = tested on: NCI/ADR-RES
OVCAR-3 = tested on: OVCAR-3
OVCAR-5 = tested on: OVCAR-5
OVCAR-8 = tested on: OVCAR-8
SF-539 = tested on: SF-539
SN12C = tested on: SN12C
SNB-19 = tested on: SNB-19
UACC-62 = tested on: UACC-62
HOP-62 = tested on: HOP-62
LOX IMVI = tested on: LOX IMVI
MDA-MB-231 = tested on: MDA-MB-231
RPMI-8226 = tested on: RPMI-8226
SK-OV-3 = tested on: SK-OV-3

Row | SMILES | GI50 (A549) | GI50 (ACHN) | GI50 (DU-145) | GI50 (EKVX) | GI50 (HL-60) | GI50 (MDA-MB-435) | GI50 (MOLT-4) | GI50 (NCI/ADR-RES) | GI50 (OVCAR-3) | GI50 (OVCAR-5) | GI50 (OVCAR-8) | GI50 (SF-539) | GI50 (SN12C) | GI50 (SNB-19) | GI50 (UACC-62) | GI50 (HOP-62) | GI50 (LOX IMVI) | GI50 (MDA-MB-231) | GI50 (RPMI-8226) | GI50 (SK-OV-3)
1 | CCOC(=O)c1cc(-c2ccc(OC)cc2)c([N+](=O)[O-])n1C | > 10 µM (inactive) | > 10 µM (inactive) | > 10 µM (inactive) | > 10 µM (inactive) | > 10 µM (inactive) | > 10 µM (inactive) | > 10 µM (inactive) | > 10 µM (inactive) | > 10 µM (inactive) | > 10 µM (inactive) | > 10 µM (inactive) | > 10 µM (inactive) | > 10 µM (inactive) | > 10 µM (inactive) | > 10 µM (inactive) | – | – | – | – | –
2 | Nc1nc(Cc2ccccc2)nc(Cc2ccccc2)c1-c1ccccc1 | 33.9 µM (inactive) | 29 µM (inactive) | 22.8 µM (inactive) | 11.4 µM (inactive) | 24 µM (inactive) | 22.9 µM (inactive) | 11.2 µM (inactive) | 16.7 µM (inactive) | 14.7 µM (inactive) | 29.1 µM (inactive) | 28.7 µM (inactive) | – | 28.2 µM (inactive) | 75.7 µM (inactive) | 18 µM (inactive) | 20.7 µM (inactive) | 21.3 µM (inactive) | 18.7 µM (inactive) | – | –
3 | COc1ccc([C@H]2C=C(c3cc(F)c(Cl)cc3Cl)N=c3s/c(=C\c4ccc(-c5ccc(Cl)cc5Cl)o4)c(=O)n32)cc1 | > 100 µM (inactive) | > 100 µM (inactive) | 71 µM (inactive) | – | – | 30.5 µM (inactive) | 31.9 µM (inactive) | 44.5 µM (inactive) | – | 39.4 µM (inactive) | 37.8 µM (inactive) | 34.6 µM (inactive) | 47.8 µM (inactive) | 31.9 µM (inactive) | 25.5 µM (inactive) | 18.8 µM (inactive) | 38 µM (inactive) | 25.5 µM (inactive) | 32.5 µM (inactive) | 21.5 µM (inactive)
4 | c1ccc(C[N+]23C(CC[C@H]2c2ccccc2)CC[C@H]3c2ccccc2)cc1 (stereo partly drawn) | 36.6 µM (inactive) | > 100 µM (inactive) | 32.9 µM (inactive) | 24 µM (inactive) | 11.2 µM (inactive) | 18.7 µM (inactive) | 27.9 µM (inactive) | – | 14.3 µM (inactive) | 86.1 µM (inactive) | 30.2 µM (inactive) | – | 37.5 µM (inactive) | 29.5 µM (inactive) | – | 33.5 µM (inactive) | 29.2 µM (inactive) | 34.9 µM (inactive) | 2.94 µM (inactive) | 67.9 µM (inactive)
5 | Cc1cccc(/N=N/c2ccc(/N=N/c3c(O)ccc4ccccc34)cc2C)c1 | 80 µM (inactive) | 49.3 µM (inactive) | – | 84.7 µM (inactive) | 33.5 µM (inactive) | > 100 µM (inactive) | > 100 µM (inactive) | 13.4 µM (inactive) | > 100 µM (inactive) | > 100 µM (inactive) | 7.05 µM (inactive) | 36.2 µM (inactive) | – | 38.2 µM (inactive) | 72.4 µM (inactive) | 22.4 µM (inactive) | – | > 100 µM (inactive) | > 100 µM (inactive) | 28.4 µM (inactive)
6 | O=C(O)c1nc2cc(C(F)(F)F)ccc2nc1Nc1ccc(Cl)c(Cl)c1 | 8.79 µM (inactive) | 11.6 µM (inactive) | – | 17.9 µM (inactive) | – | 5.12 µM (inactive) | – | 10.5 µM (inactive) | 13.5 µM (inactive) | 17.7 µM (inactive) | 12.6 µM (inactive) | 11.4 µM (inactive) | – | 8.95 µM (inactive) | 12.3 µM (inactive) | 14.5 µM (inactive) | 17.3 µM (inactive) | 20.7 µM (inactive) | 6.78 µM (inactive) | 16.7 µM (inactive)
7 | CN1C(C(=O)Nc2ccccn2)=C(O)c2ccccc2S1(=O)=O [PIROXICAM] | > 100 µM (inactive) | > 100 µM (inactive) | > 100 µM (inactive) | > 100 µM (inactive) | > 100 µM (inactive) | > 100 µM (inactive) | > 100 µM (inactive) | > 100 µM (inactive) | > 100 µM (inactive) | > 100 µM (inactive) | > 100 µM (inactive) | > 100 µM (inactive) | > 100 µM (inactive) | > 100 µM (inactive) | > 100 µM (inactive) | > 100 µM (inactive) | > 100 µM (inactive) | – | > 100 µM (inactive) | > 100 µM (inactive)
8 | O=C(Nc1ccccc1)c1cc(S(=O)(=O)N2CCNNC2=O)c(S)cc1Cl | > 100 µM (inactive) | > 100 µM (inactive) | 90.4 µM (inactive) | > 100 µM (inactive) | > 100 µM (inactive) | > 100 µM (inactive) | 71.6 µM (inactive) | 34.7 µM (inactive) | > 100 µM (inactive) | > 100 µM (inactive) | 32.3 µM (inactive) | > 100 µM (inactive) | > 100 µM (inactive) | > 100 µM (inactive) | > 100 µM (inactive) | – | 43.7 µM (inactive) | 39 µM (inactive) | 33.9 µM (inactive) | –
9 | O=C(O)c1ccc(/N=C(\C(=N\c2ccc(C(=O)O)cc2)c2ccccc2)c2ccccc2)cc1 | > 100 µM (inactive) | > 100 µM (inactive) | > 100 µM (inactive) | > 100 µM (inactive) | – | > 100 µM (inactive) | > 100 µM (inactive) | > 100 µM (inactive) | > 100 µM (inactive) | > 100 µM (inactive) | > 100 µM (inactive) | – | > 100 µM (inactive) | > 100 µM (inactive) | > 100 µM (inactive) | > 100 µM (inactive) | > 100 µM (inactive) | > 100 µM (inactive) | > 100 µM (inactive) | > 100 µM (inactive)
10 | O=C(Nc1ccccc1[N+](=O)[O-])C(=O)C(C(=O)c1ccccc1-c1ccccc1)C1OC(=O)c2ccccc21 (stereo not drawn) | 24.5 µM (inactive) | 30.8 µM (inactive) | – | 20.2 µM (inactive) | 14.7 µM (inactive) | – | 16 µM (inactive) | – | 14 µM (inactive) | 20.3 µM (inactive) | 14.8 µM (inactive) | 11.6 µM (inactive) | 14.6 µM (inactive) | 13.6 µM (inactive) | 16 µM (inactive) | 17.5 µM (inactive) | 16.3 µM (inactive) | – | 18.5 µM (inactive) | 30.8 µM (inactive)
11 | CCCCCCCCCC(=O)NC(CCC(=O)N(CCNC(=O)c1nc(-c2ccccc2)oc1-c1ccccc1)Cc1ccccc1)C(=O)O (stereo not drawn) | 17.4 µM (inactive) | 18.8 µM (inactive) | 20.3 µM (inactive) | 16.6 µM (inactive) | – | 18.7 µM (inactive) | 22.4 µM (inactive) | 16.6 µM (inactive) | 16.3 µM (inactive) | 17.1 µM (inactive) | 17.5 µM (inactive) | 24 µM (inactive) | 18.7 µM (inactive) | 17.4 µM (inactive) | – | 16.4 µM (inactive) | 18.6 µM (inactive) | 19.9 µM (inactive) | 17.3 µM (inactive) | 16.9 µM (inactive)
12 | C[C@]12CC/C(=N\OCCN3CCCCC3)C=C1CCC1C2CC[C@@]2(C)C1CC[C@]2(C)O (stereo partly drawn) | 12.2 µM (inactive) | 11.4 µM (inactive) | 13.2 µM (inactive) | 16.2 µM (inactive) | – | 2.3 µM (inactive) | 2.64 µM (inactive) | 5.27 µM (inactive) | 17 µM (inactive) | 19.6 µM (inactive) | 11.2 µM (inactive) | 7.35 µM (inactive) | 15.3 µM (inactive) | 11.9 µM (inactive) | 9.86 µM (inactive) | 15.2 µM (inactive) | 4.11 µM (inactive) | 11.7 µM (inactive) | 12.7 µM (inactive) | 16.7 µM (inactive)
13 | C[C@H]1C=C2C(=O)O[C@H]3CC[C@@H](C1)[C@@]23O | 11.2 µM (inactive) | 4.97 µM (inactive) | – | 2.67 µM (inactive) | 2.12 µM (inactive) | – | 1.21 µM (inactive) | – | 5.38 µM (inactive) | 4.33 µM (inactive) | 3.39 µM (inactive) | 2.03 µM (inactive) | 2.4 µM (inactive) | 16.3 µM (inactive) | 3.18 µM (inactive) | > 10 µM (inactive) | 2.55 µM (inactive) | – | 29.6 µM (inactive) | 8 µM (inactive)
14 | CC(=O)OCSc1ncnc2c1ncn2CN1CCOCC1 | 44.6 µM (inactive) | 33 µM (inactive) | – | > 100 µM (inactive) | 6.22 µM (inactive) | – | 4.12 µM (inactive) | – | 7.23 µM (inactive) | 18.5 µM (inactive) | 28.9 µM (inactive) | 6.82 µM (inactive) | 60.1 µM (inactive) | > 100 µM (inactive) | 4.81 µM (inactive) | 10 µM (inactive) | 2.03 µM (inactive) | – | 4.44 µM (inactive) | 2.01 µM (inactive)
15 | C/C=C\C(CC(=O)NCCc1cn(C(=O)OCc2ccccc2)c2ccccc12)CC(=O)OC (stereo not drawn) | 50.5 µM (inactive) | > 100 µM (inactive) | > 100 µM (inactive) | 45.2 µM (inactive) | – | 42.3 µM (inactive) | 48 µM (inactive) | 41.8 µM (inactive) | 69.7 µM (inactive) | > 100 µM (inactive) | > 100 µM (inactive) | – | – | 63.1 µM (inactive) | 90.4 µM (inactive) | > 100 µM (inactive) | – | > 100 µM (inactive) | 58.7 µM (inactive) | > 100 µM (inactive)
16 | FC(F)(F)c1cc(Cl)cnc1N/N=C(/c1ccccc1)c1ccccn1 | 3.03 µM (inactive) | 2.92 µM (inactive) | 4.46 µM (inactive) | 1.03 µM (active) | – | 4.85 µM (inactive) | 1.31 µM (inactive) | 2.34 µM (inactive) | 1.82 µM (inactive) | 2 µM (inactive) | 1.8 µM (inactive) | 3.66 µM (inactive) | 5.36 µM (inactive) | 4.67 µM (inactive) | 3.27 µM (inactive) | 3.98 µM (inactive) | – | 4.09 µM (inactive) | 4.11 µM (inactive) | 2.49 µM (inactive)
